According to patent publication US20060069132A1, “Azolecarboxamide herbicides” (priority 2004, published 2006):

Tests used:
barnyardgrass [1] = experiment: Test B pre-/postemergence herbicide test; assay type: in vivo, Echinochloa crus-galli; details: for Barnyardgrass plant response rating (0 to 100 scale) / Plant response rating, Barnyardgrass: 0 = no effect, 100 = complete control, preemergence; for Plant response rating, Barnyardgrass / Barnyardgrass plant response rating: visual rating; for Barnyardgrass plant response rating: postemergence, scale 0 (no effect) to 100 (complete control)
Outline: (§1)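 Species tested were Echinochloa crus-galli, Ipomoea coccinea, Xanthium strumarium and Oryza sativa, treated both before emergence and at the 1- to 4-leaf stage; rice and barnyardgrass were also tested under flooding at 2 leaves. Greenhouse incubation lasted 13–15 days before visual 0–100 scoring.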

Surinam grass = experiment: Test B pre-/postemergence herbicide test; assay type: in vivo, Urochloa decumbens; details: for Surinam Grass plant response rating (0 to 100 scale) / Plant response rating, Surinam Grass: 0 = no effect, 100 = complete control, preemergence; for Surinam Grass plant response rating: postemergence
Outline: (§2)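 Plants compared with untreated controls 13–15 days post-treatment and given a visual 0–100 injury score. Applications: preemergence to seeds; postemergence at 1- to 4-leaf (2–18 cm); paddy species flooded, 2-leaf stage. Vehicle non-phytotoxic, surfactant included.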

cocklebur = experiment: Test B pre-/postemergence herbicide test; assay type: in vivo, Xanthium strumarium; details: for Cocklebur plant response rating (0 to 100 scale) / Plant response rating, Cocklebur: 0 = no effect, 100 = complete control, preemergence; for Plant response rating, Cocklebur / Cocklebur plant response rating: visual rating; for Cocklebur plant response rating: postemergence, scale 0 (no effect) to 100 (complete control)
Outline: as §1

corn = experiment: Test B pre-/postemergence herbicide test; assay type: in vivo, Zea mays; details: for Corn plant response rating (0 to 100 scale) / Plant response rating, Corn: 0 = no effect, 100 = complete control, preemergence; for Corn plant response rating: postemergence
Outline: as §2

large crabgrass = experiment: Test B pre-/postemergence herbicide test; assay type: in vivo, Digitaria sanguinalis; details: for Crabgrass, Large plant response rating: postemergence
Outline: as §2

giant foxtail = experiment: Test B pre-/postemergence herbicide test; assay type: in vivo, Setaria faberi; details: for Foxtail, Giant plant response rating (0 to 100 scale) / Plant response rating, Foxtail, Giant: 0 = no effect, 100 = complete control, preemergence; for Foxtail, Giant plant response rating: postemergence
Outline: as §2

lambsquarters = experiment: Test B pre-/postemergence herbicide test; assay type: in vivo, Chenopodium album; details: for Lambsquarters plant response rating: postemergence
Outline: as §2

morningglory = experiment: Test B pre-/postemergence herbicide test; assay type: in vivo, Ipomoea coccinea; details: for Morningglory plant response rating (0 to 100 scale) / Plant response rating, Morningglory: 0 = no effect, 100 = complete control, preemergence; for Morningglory plant response rating: postemergence
Outline: as §1

pigweed = experiment: Test B pre-/postemergence herbicide test; assay type: in vivo, Amaranthus retroflexus; details: for Pigweed plant response rating: postemergence
Outline: as §2

rice [2] = experiment: Test B pre-/postemergence herbicide test; assay type: in vivo, Oryza sativa; details: 0 = no effect, 100 = complete control, preemergence; for Rice plant response rating (0 to 100 scale): 125 g ai/ha; for Plant response rating, Rice: 500 g ai/ha, visual rating
Outline: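 Greenhouse pot assay with simultaneous preemergence (treated seed) and postemergence (2–18 cm seedlings) applications of surfactant-containing, non-phytotoxic solvent formulations. Response scored visually 13–15 days later on a 0–100 scale, 100 meaning complete control.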

velvetleaf = experiment: Test B pre-/postemergence herbicide test; assay type: in vivo, Abutilon theophrasti; details: for Velvetleaf plant response rating (0 to 100 scale) / Plant response rating, Velvetleaf: 0 = no effect, 100 = complete control, preemergence; for Velvetleaf plant response rating: postemergence
Outline: as §2

blackgrass = experiment: Test B postemergence herbicide test; assay type: in vivo, Alopecurus myosuroides; details: postemergence, visual rating, scale 0 (no effect) to 100 (complete control)
Outline: (§3)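 Plants grow to 1- to 4-leaf stage (2–18 cm) for postemergence spraying, or to 2-leaf stage for the paddy test. Formulated compound is applied. Greenhouse holding lasts 13–15 days. Response is scored visually relative to controls, 0 no effect to 100 complete control; a dash means no result.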

wheat = experiment: Test B postemergence herbicide test; assay type: in vivo, Triticum aestivum; parameters: key to Wheat plant response rating: 0 = no effect, 100 = complete control; details: postemergence
Outline: (§4)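 Visual ratings, 0 (no effect) to 100 (complete control), made versus controls after 13–15 d greenhouse. Paddy plants treated at 2-leaf stage; postemergence plants at 1- to 4-leaf stage, 2–18 cm tall.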

wild oat = experiment: Test B postemergence herbicide test; assay type: in vivo, Avena fatua; details: postemergence
Outline: as §4

rice [3] = experiment: Test B flooded paddy test; assay type: in vivo, Oryza sativa; details: 1000 g ai/ha, scale 0 to 100 (0 no effect, 100 complete control)
Outline: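 Formulated test chemicals went onto postemergence plants measuring 2 to 18 cm, at one to four leaves. For the paddy assay, species had reached two leaves. Scoring took place 13–15 days later by eye, relative to untreated plants, using 0 for no effect up to 100 for full control.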

[4] = test system: small flower umbrella sedge; experiment: Test B flooded paddy test; assay type: in vivo, Cyperus difformis; details: 1000 g ai/ha, scale 0 to 100 (0 no effect, 100 complete control)
Outline: as §3

ducksalad = experiment: Test B flooded paddy test; assay type: in vivo, Heteranthera limosa; details: 1000 g ai/ha, scale 0 to 100 (0 no effect, 100 complete control)
Outline: as §3

barnyardgrass [5] = experiment: Test B flooded paddy test; assay type: in vivo, Echinochloa crus-galli; details: 1000 g ai/ha, scale 0 to 100 (0 no effect, 100 complete control)
Outline: as §3

[6] = 125 g ai/ha, visual rating, scale 0 (no effect) to 100 (complete control)
[7] = 500 g ai/ha, visual rating, scale 0 (no effect) to 100 (complete control)
[8] = 125 g ai/ha, 0 = no effect, 100 = complete control, preemergence
[9] = 500 g ai/ha, visual rating, 0 = no effect, 100 = complete control, preemergence
[10] = 500 g ai/ha, scale 0 to 100, 0 is no effect, 100 is complete control

Compound: CCNC(=O)c1ccnc(NC(=O)c2nn(C(C)(C)C)cc2CC)c1 [Compound 233]
- Barnyardgrass plant response rating (0 to 100 scale) (barnyardgrass [1]; 125 g ai/ha): 10
- Plant response rating, Barnyardgrass (barnyardgrass [1]; 500 g ai/ha): 10
- Surinam Grass plant response rating (0 to 100 scale) (Surinam grass; 125 g ai/ha): 0
- Plant response rating, Surinam Grass (Surinam grass; 500 g ai/ha, visual rating): 20
- Surinam Grass plant response rating (Surinam grass; [6]): 10
- Surinam Grass plant response rating (Surinam grass; [7]): 20
- Cocklebur plant response rating (0 to 100 scale) (cocklebur; 125 g ai/ha): 0
- Plant response rating, Cocklebur (cocklebur; 500 g ai/ha): 0
- Cocklebur plant response rating (cocklebur; 125 g ai/ha): 20
- Cocklebur plant response rating (cocklebur; 500 g ai/ha): 20
- Corn plant response rating (0 to 100 scale) (corn; 125 g ai/ha): 0
- Plant response rating, Corn (corn; 500 g ai/ha, visual rating): 0
- Corn plant response rating (corn; [6]): 10
- Corn plant response rating (corn; [7]): 30
- Crabgrass, Large plant response rating (0 to 100 scale) (large crabgrass; [8]): 20
- Plant response rating, Crabgrass, Large (large crabgrass; [9]): 90
- Crabgrass, Large plant response rating (large crabgrass; [6]): 10
- Crabgrass, Large plant response rating (large crabgrass; [7]): 10
- Foxtail, Giant plant response rating (0 to 100 scale) (giant foxtail; 125 g ai/ha): 0
- Plant response rating, Foxtail, Giant (giant foxtail; 500 g ai/ha, visual rating): 0
- Foxtail, Giant plant response rating (giant foxtail; [6]): 0
- Foxtail, Giant plant response rating (giant foxtail; [7]): 30
- Lambsquarters plant response rating (0 to 100 scale) (lambsquarters; [8]): 0
- Plant response rating, Lambsquarters (lambsquarters; [9]): 30
- Lambsquarters plant response rating (lambsquarters; [6]): 50
- Lambsquarters plant response rating (lambsquarters; [7]): 70
- Morningglory plant response rating (0 to 100 scale) (morningglory; 125 g ai/ha): 0
- Plant response rating, Morningglory (morningglory; 500 g ai/ha, visual rating): 0
- Morningglory plant response rating (morningglory; [6]): 50
- Morningglory plant response rating (morningglory; [7]): 80
- Pigweed plant response rating (0 to 100 scale) (pigweed; [8]): 0
- Plant response rating, Pigweed (pigweed; [9]): 60
- Pigweed plant response rating (pigweed; [6]): 60
- Pigweed plant response rating (pigweed; [7]): 70
- Rice plant response rating (0 to 100 scale) (rice [2]): 0
- Plant response rating, Rice (rice [2]): 0
- Velvetleaf plant response rating (0 to 100 scale) (velvetleaf; 125 g ai/ha): 10
- Plant response rating, Velvetleaf (velvetleaf; 500 g ai/ha, visual rating): 10
- Velvetleaf plant response rating (velvetleaf; [6]): 30
- Velvetleaf plant response rating (velvetleaf; [7]): 50
- Blackgrass plant response rating (blackgrass; 125 g ai/ha): 0
- Blackgrass plant response rating (blackgrass; 500 g ai/ha): 10
- Wheat plant response rating (wheat; [6]): 0
- Wheat plant response rating (wheat; [7]): 10
- Oat, Wild plant response rating (wild oat; [6]): 0
- Oat, Wild plant response rating (wild oat; [7]): 20
- Rice plant response rating (rice [3]): 30
- Sedge, Umbrella plant response rating [4]: 80
- Ducksalad plant response rating (ducksalad): 50
- Barnyardgrass plant response rating (barnyardgrass [5]): 0

Compound: CCNC(=O)c1cc(NC(=O)c2cc(C(C)(C)C)nn2CC)ccn1 [Compound 257]
- Barnyardgrass plant response rating (0 to 100 scale) (barnyardgrass [1]; 125 g ai/ha): 0
- Plant response rating, Barnyardgrass (barnyardgrass [1]; 500 g ai/ha): 20
- Barnyardgrass plant response rating (barnyardgrass [1]; 125 g ai/ha): 0
- Barnyardgrass plant response rating (barnyardgrass [1]; 500 g ai/ha): 0
- Surinam Grass plant response rating (0 to 100 scale) (Surinam grass; 125 g ai/ha): 0
- Plant response rating, Surinam Grass (Surinam grass; 500 g ai/ha, visual rating): 0
- Surinam Grass plant response rating (Surinam grass; [6]): 0
- Surinam Grass plant response rating (Surinam grass; [10]): 20
- Cocklebur plant response rating (0 to 100 scale) (cocklebur; 125 g ai/ha): 0
- Plant response rating, Cocklebur (cocklebur; 500 g ai/ha): 0
- Cocklebur plant response rating (cocklebur; 125 g ai/ha): 0
- Cocklebur plant response rating (cocklebur; 500 g ai/ha): 70
- Corn plant response rating (0 to 100 scale) (corn; 125 g ai/ha): 0
- Plant response rating, Corn (corn; 500 g ai/ha, visual rating): 0
- Corn plant response rating (corn; [6]): 0
- Corn plant response rating (corn; [10]): 0
- Crabgrass, Large plant response rating (0 to 100 scale) (large crabgrass; [8]): 0
- Crabgrass, Large plant response rating (large crabgrass; [6]): 0
- Crabgrass, Large plant response rating (large crabgrass; [10]): 10
- Foxtail, Giant plant response rating (0 to 100 scale) (giant foxtail; 125 g ai/ha): 0
- Plant response rating, Foxtail, Giant (giant foxtail; 500 g ai/ha, visual rating): 50
- Foxtail, Giant plant response rating (giant foxtail; [6]): 0
- Foxtail, Giant plant response rating (giant foxtail; [10]): 0
- Lambsquarters plant response rating (0 to 100 scale) (lambsquarters; [8]): 0
- Lambsquarters plant response rating (lambsquarters; [6]): 20
- Lambsquarters plant response rating (lambsquarters; [10]): 50
- Morningglory plant response rating (0 to 100 scale) (morningglory; 125 g ai/ha): 0
- Plant response rating, Morningglory (morningglory; 500 g ai/ha, visual rating): 0
- Morningglory plant response rating (morningglory; [6]): 0
- Morningglory plant response rating (morningglory; [10]): 0
- Pigweed plant response rating (0 to 100 scale) (pigweed; [8]): 0
- Pigweed plant response rating (pigweed; [6]): 60
- Pigweed plant response rating (pigweed; [10]): 80
- Rice plant response rating (0 to 100 scale) (rice [2]): 0
- Plant response rating, Rice (rice [2]): 0
- Velvetleaf plant response rating (0 to 100 scale) (velvetleaf; 125 g ai/ha): 0
- Plant response rating, Velvetleaf (velvetleaf; 500 g ai/ha, visual rating): 0
- Velvetleaf plant response rating (velvetleaf; [6]): 0
- Velvetleaf plant response rating (velvetleaf; [10]): 10
- Blackgrass plant response rating (blackgrass; 125 g ai/ha): 0
- Blackgrass plant response rating (blackgrass; 500 g ai/ha): 10
- Wheat plant response rating (wheat; [6]): 0
- Wheat plant response rating (wheat; [10]): 20
- Oat, Wild plant response rating (wild oat; [6]): 10
- Oat, Wild plant response rating (wild oat; [10]): 30
- Rice plant response rating (rice [3]): 30
- Sedge, Umbrella plant response rating [4]: 0
- Ducksalad plant response rating (ducksalad): 50
- Barnyardgrass plant response rating (barnyardgrass [5]): 0
